Data taken from patent US20100120763A1, “IMIDAZO[5,1-C][1,2,4]BENZOTRIAZINE DERIVATIVES AS INHIBITORS OF PHOSPHODIESTERASES” (priority 2008, published 2010).
pIC50: −log10 of the molar value.

How the values were obtained:
PDE2A = molecular target: T1, PDE2A (Homo sapiens, UniProt O00408); assay: Inhibition of recombinant PDE2A (expressed in baculovirus/SF21-cells), [3H]-cAMP SPA; format: biochemical
T1 construct: made in house; host or cells: SF21 insect cells (baculovirus)
Method in brief: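 Membrane fraction of baculovirus/SF21-expressed PDE2A was incubated 30 min at 37° C in Tris-HCl/MgCl2 pH 7.4 with 0.5 μM [3H]-cAMP and 1000 nM cGMP as activator. Product was detected by SPA scintillation. IC50 used a Hill-plot 2-parameter model.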

PDE10A = molecular target: T2, PDE10A (Homo sapiens, UniProt Q9Y233); assay: Inhibition of recombinant PDE10A (baculovirus/SF21 system), [3H]-cAMP SPA; format: biochemical; conditions: recombinant PDE10A1, cytosolic; 0.1 μM [3H]-cAMP, 37° C., 30 minutes; read-out: PDE10A IC50
T2 construct: made in house; host or cells: SF21 insect cells (baculovirus)
T2 sequence (Q9Y233 1-779 isoform Q9Y233-1): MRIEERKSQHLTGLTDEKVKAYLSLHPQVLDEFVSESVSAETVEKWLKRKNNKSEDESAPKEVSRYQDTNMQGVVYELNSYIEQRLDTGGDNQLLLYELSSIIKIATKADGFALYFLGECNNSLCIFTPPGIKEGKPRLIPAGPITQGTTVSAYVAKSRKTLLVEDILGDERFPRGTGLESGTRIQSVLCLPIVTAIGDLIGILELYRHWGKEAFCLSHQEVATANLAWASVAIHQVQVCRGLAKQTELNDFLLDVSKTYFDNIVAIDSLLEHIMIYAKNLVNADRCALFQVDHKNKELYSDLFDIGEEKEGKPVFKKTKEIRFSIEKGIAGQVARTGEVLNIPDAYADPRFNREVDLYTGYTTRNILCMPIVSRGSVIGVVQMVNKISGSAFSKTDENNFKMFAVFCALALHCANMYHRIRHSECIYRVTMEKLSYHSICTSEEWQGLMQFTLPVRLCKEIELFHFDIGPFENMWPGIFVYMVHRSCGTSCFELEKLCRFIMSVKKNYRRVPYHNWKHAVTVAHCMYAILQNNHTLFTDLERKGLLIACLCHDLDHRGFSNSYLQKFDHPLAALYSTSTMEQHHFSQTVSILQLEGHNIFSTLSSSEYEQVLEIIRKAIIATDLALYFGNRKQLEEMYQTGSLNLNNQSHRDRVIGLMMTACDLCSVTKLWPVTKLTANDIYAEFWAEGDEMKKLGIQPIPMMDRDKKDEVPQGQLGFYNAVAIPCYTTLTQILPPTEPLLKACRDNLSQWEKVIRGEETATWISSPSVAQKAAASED

T1 sequence (O00408 whole entry): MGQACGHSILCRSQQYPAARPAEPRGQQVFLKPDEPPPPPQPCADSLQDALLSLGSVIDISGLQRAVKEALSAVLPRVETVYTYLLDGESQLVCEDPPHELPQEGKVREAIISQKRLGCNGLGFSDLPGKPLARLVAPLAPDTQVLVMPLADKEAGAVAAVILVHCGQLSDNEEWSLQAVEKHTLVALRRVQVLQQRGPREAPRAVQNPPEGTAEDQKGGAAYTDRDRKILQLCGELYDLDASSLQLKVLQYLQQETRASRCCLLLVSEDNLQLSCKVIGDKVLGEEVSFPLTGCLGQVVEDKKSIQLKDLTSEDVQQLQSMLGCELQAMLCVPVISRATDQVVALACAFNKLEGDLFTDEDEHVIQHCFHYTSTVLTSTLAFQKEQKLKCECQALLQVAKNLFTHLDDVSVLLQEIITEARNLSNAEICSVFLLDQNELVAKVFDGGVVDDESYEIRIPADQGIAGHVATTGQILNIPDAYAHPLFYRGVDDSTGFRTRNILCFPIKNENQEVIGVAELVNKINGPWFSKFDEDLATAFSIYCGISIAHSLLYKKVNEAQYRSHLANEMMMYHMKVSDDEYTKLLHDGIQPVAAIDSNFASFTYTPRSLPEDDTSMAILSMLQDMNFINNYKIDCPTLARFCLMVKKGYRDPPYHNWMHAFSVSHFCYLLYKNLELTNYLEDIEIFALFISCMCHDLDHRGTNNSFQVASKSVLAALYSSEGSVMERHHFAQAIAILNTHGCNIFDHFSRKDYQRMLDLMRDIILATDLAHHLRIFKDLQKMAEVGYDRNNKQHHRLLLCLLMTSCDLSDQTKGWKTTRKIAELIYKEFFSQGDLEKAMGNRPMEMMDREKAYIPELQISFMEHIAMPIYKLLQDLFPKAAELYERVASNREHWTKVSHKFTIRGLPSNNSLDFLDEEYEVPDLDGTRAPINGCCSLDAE

Row | SMILES | pIC50 (PDE2A) | pIC50 (PDE10A) | melting point
1 | Cc1nc(-c2ccccc2Cl)n2c1nnc1ccc(-n3ccnc3)cc12 [Example 185, 1-(2-Chloro-phenyl)-8-imidazol-1-yl-3-methyl-imidazo[5,1-c][1,2,4]benzotriazine] | 8.15 | 8.05 | 95 to 98 °C
2 | Cc1nc(-c2ccccc2Cl)n2c1nnc1ccc(N3CCN(C)CC3)cc12 [Example 186, 1-(2-Chloro-phenyl)-3-methyl-8-(4-methyl-piperazin-1-yl)-imidazo[5,1-c][1,2,4]benzotriazine] | 8.13 | 8.04 | 230 °C
3 | Cc1nc(-c2ccccc2Cl)n2c1nnc1ccc(-c3ccccc3Cl)cc12 [Example 172, 1,8-Bis-(2-chloro-phenyl)-3-methyl-imidazo[5,1-c][1,2,4]benzotriazine] | 8.89 | 8.18 | 172 to 175 °C
4 | Cc1nc(-c2cc(Cl)ccc2Cl)n2c1nnc1ccc(F)cc12 [Example 8, 1-(2,5-dichlorophenyl)-8-fluoro-3-methylbenzo[e]imidazo[5,1-c][1,2,4]triazine] | 7.44 | 6.75 | 146 to 149 °C
5 | Cc1nc(C2CCCCC2)n2c1nnc1ccc(F)cc12 [Example 4, 1-cyclohexyl-8-fluoro-3-methyl-imidazo[5,1-c][1,2,4]benzotriazine] | 6.27 | 6.64 | 246 to 250 °C (dec.)
6 | Cc1ncccc1-c1nc(C)c2nnc3ccc(Cl)cc3n12 [Example 38, 8-chloro-3-methyl-1-(2-methylpyridin-3-yl)benzo[e]imidazo[5,1-c][1,2,4]triazine] | 7.38 | 6.68 | 235 to 236 °C
7 | Cc1nc(-c2cc(Cl)ccc2Cl)n2c1nnc1cc(F)ccc12 [Example 6, 1-(2,5-dichlorophenyl)-7-fluoro-3-methyl-imidazo[5,1-c][1,2,4]benzotriazine] | 7.53 | 6.12 | 186 to 190 °C
8 | CCCOc1ccc(F)c(-c2ccc3nnc4c(C)nc(-c5cc(OCCC)ccc5F)n4c3c2)c1 [Example 174, 1,8-Bis-(2-fluoro-5-propoxy-phenyl)-3-methyl-imidazo[5,1-c][1,2,4]benzotriazine] | 8.45 | 7.39 | 134 to 136 °C
9 | COc1ccc2c(c1)nnc1c(C)nc(-c3cccnc3C)n12 [Example 36, 7-methoxy-3-methyl-1(2-methylpyridin-3-yl)benzo[e]imidazo[5,1-c][1,2,4]triazine] | 7.13 | 6.45 | 202 to 205 °C
10 | Cc1ccccc1-c1nc(C)c2nnc3ccc(F)cc3n12 [Example 17, 8-fluoro-3-methyl-1-o-tolylbenzo[e]imidazo[5,1-c][1,2,4]triazine] | 6.91 | 6.71 | 192 to 195 °C
11 | Cc1nc(-c2cccc(Cl)c2Cl)n2c1nnc1ccc(-c3cccc(Cl)c3Cl)cc12 [Example 173, 1,8-Bis-(2,3-dichloro-phenyl)-3-methyl-imidazo[5,1-c][1,2,4]benzotriazine] | 7.21 | 7.24 | 207 to 210 °C
12 | COc1ccc2c(c1)nnc1c(C)nc(-c3ccccc3Cl)n12 [Example 34, 1-(2-chlorophenyl)-7-methoxy-3-methylbenzo[e]imidazo[5,1-c][1,2,4]triazine] | 7.57 | 7.12 | 163 to 165 °C
13 | COc1ccc2nnc3c(C)nc(-c4cc(Cl)ccc4Cl)n3c2c1 [Example 5, 1-(2,5-dichlorophenyl)-8-methoxy-3-methyl-imidazo[5,1-c][1,2,4]benzotriazine] | 8.48 | 7.63 | 165 to 168 °C
14 | Cc1nc(-c2cc(OC(C)C)ccc2F)n2c1nnc1cc(F)ccc12 [Example 31, 7-fluoro-1-(2-fluoro-5-isopropoxyphenyl)-3-methylbenzo[e]imidazo[5,1-c][1,2,4]triazine] | 6.26 | 5.27 | 133 to 136 °C
15 | CCCCOc1ccc(F)c(-c2ccc3nnc4c(C)nc(-c5cc(OCCCC)ccc5F)n4c3c2)c1 [Example 175, 1,8-Bis-(5-butoxy-2-fluoro-phenyl)-3-methyl-imidazo[5,1-c][1,2,4]benzotriazine] | 9.11 | 7.67 | 94 to 95 °C
16 | Cc1nc(-c2ccccc2C(N)=O)n2c1nnc1ccc(Cl)cc12 [Example 41, 2-(8-chloro-3-methylbenzo[e]imidazo[5,1-c][1,2,4]triazin-1-yl)benzamide] | < 6.00 | 5.51 | 249 to 251 °C
17 | Cc1ncccc1-c1nc(C)c2nnc3cc(F)ccc3n12 [Example 25, 7-fluoro-3-methyl-1-(2-methylpyridin-3-yl)benzo[e]imidazo[5,1-c][1,2,4]triazine] | 6.47 | 5.83 | 169 to 172 °C
18 | CCOc1ccc(F)c(-c2nc(C)c3nnc4ccc(F)cc4n23)c1 [Example 24, 1-(5-ethoxy-2-fluorophenyl)-8-fluoro-3-methylbenzo[e]imidazo[5,1-c][1,2,4]triazine] | 6.62 | < 6.30 | 189 to 191 °C

Row | SMILES | pIC50 (PDE2A) | pIC50 (PDE10A) | melting point
19 | Cc1nc(-c2cc(C(F)(F)F)ccc2F)n2c1nnc1ccc(F)cc12 [Example 21, 8-fluoro-1-(2-fluoro-5-(trifluoromethyl)phenyl)-3-methylbenzo[e]imidazo[5,1-c][1,2,4]triazine] | 6.04 | < 6.00 | 176 to 179 °C
20 | COc1ccc(Cl)c(-c2nc(C)c3nnc4cc(F)ccc4n23)c1 [Example 29, 1-(2-chloro-5-methoxyphenyl)-7-fluoro-3-methylbenzo[e]imidazo[5,1-c][1,2,4]triazine] | 7.45 | 6.37 | 158 to 161.5 °C
21 | Cc1nc(-c2cnccc2Cl)n2c1nnc1ccc(F)cc12 [Example 19, 1-(4-chloropyridin-3-yl)-8-fluoro-3-methylbenzo[e]imidazo[5,1-c][1,2,4]triazine] | 5.87 | 5.69 | 141 to 144 °C
22 | Cc1nc(-c2cc(C(F)(F)F)ccc2F)n2c1nnc1ccc(-c3cc(C(F)(F)F)ccc3F)cc12 [Example 176, 1,8-Bis-(2-fluoro-5-trifluoromethyl-phenyl)-3-methyl-imidazo[5,1-c][1,2,4]benzotriazine] | 6.86 | 6.93 | 155 to 158 °C
23 | COc1ccc(Cl)c(-c2nc(C)c3nnc4ccc(F)cc4n23)c1 [Example 18, 1-(2-chloro-5-methoxyphenyl)-8-fluoro-3-methylbenzo[e]imidazo[5,1-c][1,2,4]triazine] | 7.70 | 6.74 | 190 to 192 °C
24 | COc1ccc2c(c1)nnc1c(C)nc(-c3cc(Cl)ccc3Cl)n12 [Example 7, 1-(2,5-dichlorophenyl)-7-methoxy-3-methyl-imidazo[5,1-c][1,2,4]benzotriazine] | 7.75 | 6.59 | 144 to 147 °C
25 | COc1ccccc1-c1nc(C)c2nnc3cc(F)ccc3n12 [Example 26, 7-fluoro-1-(2-methoxyphenyl)-3-methylbenzo[e]imidazo[5,1-c][1,2,4]triazine] | 6.30 | 6.20 | 249 to 251 °C
26 | Cc1nc(-c2cccc(Cl)c2Cl)n2c1nnc1ccc(F)cc12 [Example 14, 1-(2,3-dichlorophenyl)-8-fluoro-3-methylbenzo[e]imidazo[5,1-c][1,2,4]triazine] | 6.43 | 6.51 | 193 to 196 °C
27 | CCc1nc(C)c2nnc3ccc(F)cc3n12 [Example 3, 1-ethyl-8-fluoro-3-methyl-imidazo[5,1-c][1,2,4]benzotriazine] | 5.42 | 5.41 | 187 to 190 °C
28 | COc1ccc2c(c1)nnc1c(C)ncn12 [Example 35, 7-methoxy-3-methylbenzo[e]imidazo[5,1-c][1,2,4]triazine] | < 5.30 | < 5.30 | 212 to 215 °C
29 | CCCOc1ccc(F)c(-c2nc(C)c3nnc4cc(F)ccc4n23)c1 |  |  | 119 to 122 °C
30 | Cc1cc(F)ccc1-c1nc(C)c2nnc3cc(F)ccc3n12 [Example 27, 7-fluoro-1-(4-fluoro-2-methylphenyl)-3-methylbenzo[e]imidazo[5,1-c][1,2,4]triazine] | 6.53 | 6.04 | 181 to 184 °C
31 | Cc1nc(-c2cc(OC(C)C)ccc2F)n2c1nnc1ccc(-c3cc(OC(C)C)ccc3F)cc12 |  |  | 160.5 to 162 °C
32 | COc1cc2nnc3c(C)nc(-c4ccccc4C(F)(F)F)n3c2cc1OC [Example 57, 7,8-dimethoxy-3-methyl-1-(2-(trifluoromethyl)phenyl)benzo[e]imidazo[5,1-c][1,2,4]triazine] |  |  | 147 to 150 °C
33 | CCCCOc1ccc(F)c(-c2nc(C)c3nnc4cc(F)ccc4n23)c1 |  |  | 91 to 94 °C
34 | COc1ccccc1-c1nc(C)c2nnc3ccc(Cl)cc3n12 [Example 39, 8-chloro-1-(2-methoxyphenyl)-3-methylbenzo[e]imidazo[5,1-c][1,2,4]triazine] |  | 6.94 | 179 to 182 °C
35 | CCOc1ccc(F)c(-c2ccc3nnc4c(C)nc(-c5cc(OCC)ccc5F)n4c3c2)c1 |  |  | 152 to 155 °C
36 | COc1cc2nnc3c(C)nc(CC(C)C)n3c2cc1OC [Example 53, 1-isobutyl-7,8-dimethoxy-3-methylbenzo[e]imidazo[5,1-c][1,2,4]triazine] |  |  | 196 to 199 °C
